pIC50: −log10 of the molar value.
System: MCF7 cells
Assay: Anti-proliferation (viability) of MCF7 cells (Table 7, FIG. 2B)
Type: cell-based
Details: Homo sapiens, MCF7, MCF7 cells, 3-6 days, 10-point serial dilution; read-out: GI IC50 in MCF-7

Row | pIC50 | SMILES
1 | < 7.00 | CNc1ccc(C(=O)Nc2ccc(N(C)C)nn2)c(NC2CC(C(=O)N3CCC4(CCN(c5ccc(Nc6ncc7c(C)c(C(C)=O)c(=O)n(C8CCCC8)c7n6)nc5)CC4)C3)C2)n1 (stereo not drawn) [CPD-381, 2-((3-(8-(6-((6-acetyl-8-cyclopentyl-5-methyl-7-oxo-7,8-dihydropyrido[2,3-d]pyrimidin-2-yl)amino)pyridin-3-yl)-2,8-diazaspiro[4.5]decane-2-carbonyl)cyclobutyl)amino)-N-(6-(dimethylamino)pyridazin-3-yl)-6-(methylamino)nicotinamide]
2 | > 7.30 | CC(=O)c1c(C)c2cnc(Nc3ccc(N4CCC(N(C)CC(=O)N5CC(Nc6nc(NC(C)C)ccc6C(=O)Nc6ccc(N(C)C)nn6)C5)CC4)cn3)nc2n(C2CCCC2)c1=O [CPD-427, 2-((1-(N-(1-(6-((6-acetyl-8-cyclopentyl-5-methyl-7-oxo-7,8-dihydropyrido[2,3-d]pyrimidin-2-yl)amino)pyridin-3-yl)piperidin-4-yl)-N-methylglycyl)azetidin-3-yl)amino)-N-(6-(dimethylamino)pyridazin-3-yl)-6-(isopropylamino)nicotinamide]
3 | < 7.00 | CNc1ccc(C(=O)Nc2ccc(N(C)C)nn2)c(NC2CC(C(=O)NC3CCC4(CC3)CCN(c3ccc(Nc5ncc6c(C)c(C(C)=O)c(=O)n(C7CCCC7)c6n5)nc3)CC4)C2)n1 (stereo not drawn) [CPD-388, 2-((3-((3-(6-((6-acetyl-8-cyclopentyl-5-methyl-7-oxo-7,8-dihydropyrido[2,3-d]pyrimidin-2-yl)amino)pyridin-3-yl)-3-azaspiro[5.5]undecan-9-yl)carbamoyl)cyclobutyl)amino)-N-(6-(dimethylamino)pyridazin-3-yl)-6-(methylamino)nicotinamide]
4 | < 7.00 | CC(=O)c1c(C)c2cnc(Nc3ccc(N4CCN(CCC(=O)N5CC(Nc6nc(NC(C)C)ccc6C(=O)Nc6cn(C)c(C7CC7)n6)C5)CC4)cn3)nc2n(C2CCCC2)c1=O [CPD-304, 2-((1-(3-(4-(6-((6-acetyl-8-cyclopentyl-5-methyl-7-oxo-7,8-dihydropyrido[2,3-d]pyrimidin-2-yl)amino)pyridin-3-yl)piperazin-1-yl)propanoyl)azetidin-3-yl)amino)-N-(2-cyclopropyl-1-methyl-1H-imidazol-4-yl)-6-(isopropylamino)nicotinamide]
5 | < 7.00 | CC(=O)c1c(C)c2cnc(Nc3ccc(N4CCC5(CC4)CC5C(=O)NC4CC(Nc5nc(NC(C)C)ccc5C(=O)Nc5ccc(N(C)C)nn5)C4)cn3)nc2n(C2CCCC2)c1=O (stereo not drawn) [CPD-413, 6-(6-((6-acetyl-8-cyclopentyl-5-methyl-7-oxo-7,8-dihydropyrido[2,3-d]pyrimidin-2-yl)amino)pyridin-3-yl)-N-(3-((3-((6-(dimethylamino)pyridazin-3-yl)carbamoyl)-6-(isopropylamino)pyridin-2-yl)amino)cyclobutyl)-6-azaspiro[2.5]octane-1-carboxamide]
6 | < 7.00 | CC(=O)c1c(C)c2cnc(Nc3ccc(N4CCN(CC(=O)N5CCC(Nc6nc(NC(C)C)ccc6C(=O)Nc6cc(C)on6)CC5)CC4)cn3)nc2n(C2CCCC2)c1=O [CPD-290, 2-((1-(2-(4-(6-((6-acetyl-8-cyclopentyl-5-methyl-7-oxo-7,8-dihydropyrido[2,3-d]pyrimidin-2-yl)amino)pyridin-3-yl)piperazin-1-yl)acetyl)piperidin-4-yl)amino)-6-(isopropylamino)-N-(5-methylisoxazol-3-yl)nicotinamide]
7 | < 7.00 | CNc1ccc(C(=O)Nc2ccc(N(C)C)nn2)c(NC2CN(C(=O)CN3CCN(Cc4ccc(Nc5ncc6c(C)c(C(C)=O)c(=O)n(C7CCCC7)c6n5)nc4)CC3)C2)n1 [CPD-269, 2-((1-(2-(4-((6-((6-acetyl-8-cyclopentyl-5-methyl-7-oxo-7,8-dihydropyrido[2,3-d]pyrimidin-2-yl)amino)pyridin-3-yl)methyl)piperazin-1-yl)acetyl)azetidin-3-yl)amino)-N-(6-(dimethylamino)pyridazin-3-yl)-6-(methylamino)nicotinamide]
8 | 7.00 to 7.30 | CC(=O)c1c(C)c2cnc(Nc3ccc(N4CCN(C5CCN(C(=O)C6CC7(CC(Nc8nc(NC(C)C)ccc8C(=O)Nc8ccc(N(C)C)nn8)C7)C6)C5)CC4)cn3)nc2n(C2CCCC2)c1=O (stereo not drawn) [CPD-400, 2-((6-(3-(4-(6-((6-acetyl-8-cyclopentyl-5-methyl-7-oxo-7,8-dihydropyrido[2,3-d]pyrimidin-2-yl)amino)pyridin-3-yl)piperazin-1-yl)pyrrolidine-1-carbonyl)spiro[3.3]heptan-2-yl)amino)-N-(6-(dimethylamino)pyridazin-3-yl)-6-(isopropylamino)nicotinamide]
9 | < 7.00 | CC(=O)c1c(C)c2cnc(Nc3ccc(N4CCC(N5CCC(C(=O)N6CCC(Nc7nc(NC(C)C)ccc7C(=O)Nc7ccc(N(C)C)nn7)C6)C5)CC4)cn3)nc2n(C2CCCC2)c1=O (stereo not drawn) [CPD-395, 2-((1-(1-(1-(6-((6-acetyl-8-cyclopentyl-5-methyl-7-oxo-7,8-dihydropyrido[2,3-d]pyrimidin-2-yl)amino)pyridin-3-yl)piperidin-4-yl)pyrrolidine-3-carbonyl)pyrrolidin-3-yl)amino)-N-(6-(dimethylamino)pyridazin-3-yl)-6-(isopropylamino)nicotinamide]
10 | < 7.00 | CNc1ccc(C(=O)Nc2ccc(N(C)C)nn2)c(NC2CC(C(=O)NC3CCC4(CCN(c5ccc(Nc6ncc7c(C)c(C(C)=O)c(=O)n(C8CCCC8)c7n6)nc5)CC4)C3)C2)n1 (stereo not drawn) [CPD-428, 2-((3-((8-(6-((6-acetyl-8-cyclopentyl-5-methyl-7-oxo-7,8-dihydropyrido[2,3-d]pyrimidin-2-yl)amino)pyridin-3-yl)-8-azaspiro[4.5]decan-2-yl)carbamoyl)cyclobutyl)amino)-N-(6-(dimethylamino)pyridazin-3-yl)-6-(methylamino)nicotinamide]

The next lines start with the compound.

Row | SMILES | pIC50
11 | CC(=O)c1c(C)c2cnc(Nc3ccc(N4CCN(C5(C(=O)NC6CC7(C6)CC(Nc6nc(NC(C)C)ccc6C(=O)Nc6cn(C)c(C8CC8)n6)C7)CC5)CC4)cn3)nc2n(C2CCCC2)c1=O (stereo not drawn) [CPD-366, 2-((6-(1-(4-(6-((6-acetyl-8-cyclopentyl-5-methyl-7-oxo-7,8-dihydropyrido[2,3-d]pyrimidin-2-yl)amino)pyridin-3-yl)piperazin-1-yl)cyclopropane-1-carboxamido)spiro[3.3]heptan-2-yl)amino)-N-(2-cyclopropyl-1-methyl-1H-imidazol-4-yl)-6-(isopropylamino)nicotinamide] | < 7.00
12 | CC(=O)c1c(C)c2cnc(Nc3ccc(N4CCN(CC(=O)NCC5CC(Nc6cc(C(F)(F)F)ccc6C(=O)Nc6cc(C)n(C)n6)C5)CC4)cn3)nc2n(C2CCCC2)c1=O (stereo not drawn) [CPD-261, 2-((3-((2-(4-(6-((6-acetyl-8-cyclopentyl-5-methyl-7-oxo-7,8-dihydropyrido[2,3-d]pyrimidin-2-yl)amino)pyridin-3-yl)piperazin-1-yl)acetamido)methyl)cyclobutyl)amino)-N-(1,5-dimethyl-1H-pyrazol-3-yl)-4-(trifluoromethyl)benzamide] | < 7.00
13 | CCCn1nc(NC(=O)c2ccc(NC)nc2NC2CC3(CC(NC(=O)CN4CCN(c5ccc(Nc6ncc7c(C)c(C(C)=O)c(=O)n(C8CCCC8)c7n6)nc5)CC4)C3)C2)cc1C (stereo not drawn) [CPD-314, 2-((6-(2-(4-(6-((6-acetyl-8-cyclopentyl-5-methyl-7-oxo-7,8-dihydropyrido[2,3-d]pyrimidin-2-yl)amino)pyridin-3-yl)piperazin-1-yl)acetamido)spiro[3.3]heptan-2-yl)amino)-N-(5-methyl-1-propyl-1H-pyrazol-3-yl)-6-(methylamino)nicotinamide] | < 7.00
14 | CNc1ccc(C(=O)Nc2cn(C)c(C3CCCC3)n2)c(NC2CC3(CC(NC(=O)CN4CCN(c5ccc(Nc6ncc7c(C)c(C(C)=O)c(=O)n(C8CCCC8)c7n6)nc5)CC4)C3)C2)n1 (stereo not drawn) [CPD-296, 2-((6-(2-(4-(6-((6-acetyl-8-cyclopentyl-5-methyl-7-oxo-7,8-dihydropyrido[2,3-d]pyrimidin-2-yl)amino)pyridin-3-yl)piperazin-1-yl)acetamido)spiro[3.3]heptan-2-yl)amino)-N-(2-cyclopentyl-1-methyl-1H-imidazol-4-yl)-6-(methylamino)nicotinamide] | < 7.00
15 | CNc1ccc(C(=O)Nc2ccc(N(C)C)nn2)c(NCC23CC(NC(=O)CN4CCN(c5ccc(Nc6ncc7c(C)c(C(C)=O)c(=O)n(C8CCCC8)c7n6)nc5)CC4)(C2)C3)n1 [CPD-345, 2-(((3-(2-(4-(6-((6-acetyl-8-cyclopentyl-5-methyl-7-oxo-7,8-dihydropyrido[2,3-d]pyrimidin-2-yl)amino)pyridin-3-yl)piperazin-1-yl)acetamido)bicyclo[1.1.1]pentan-1-yl)methyl)amino)-N-(6-(dimethylamino)pyridazin-3-yl)-6-(methylamino)nicotinamide] | < 7.00
16 | CC(=O)c1c(C)c2cnc(Nc3ccc(N4CCN(CC(=O)NC5CC6(C5)CC(Oc5nc(NC(C)C)ccc5C(=O)Nc5cn(C)c(C7CC7)n5)C6)CC4)cn3)nc2n(C2CCCC2)c1=O (stereo not drawn) [CPD-317, 2-((6-(2-(4-(6-((6-acetyl-8-cyclopentyl-5-methyl-7-oxo-7,8-dihydropyrido[2,3-d]pyrimidin-2-yl)amino)pyridin-3-yl)piperazin-1-yl)acetamido)spiro[3.3]heptan-2-yl)oxy)-N-(2-cyclopropyl-1-methyl-1H-imidazol-4-yl)-6-(isopropylamino)nicotinamide] | < 7.00
17 | CC(=O)c1c(C)c2cnc(Nc3ccc(N4CCN(CC(=O)NC5CC6(C5)CC(Nc5nc(NC(C)C)ccc5C(=O)Nc5cc7n(n5)CCC7)C6)CC4)cn3)nc2n(C2CCCC2)c1=O (stereo not drawn) [CPD-440, 2-((6-(2-(4-(6-((6-acetyl-8-cyclopentyl-5-methyl-7-oxo-7,8-dihydropyrido[2,3-d]pyrimidin-2-yl)amino)pyridin-3-yl)piperazin-1-yl)acetamido)spiro[3.3]heptan-2-yl)amino)-N-(5,6-dihydro-4H-pyrrolo[1,2-b]pyrazol-2-yl)-6-(isopropylamino)nicotinamide] | > 7.30
18 | CCc1nc(NC(=O)c2ccc(NC)nc2NC2CC3(CC(NC(=O)CN4CCN(c5ccc(Nc6ncc7c(C)c(C(C)=O)c(=O)n(C8CCCC8)c7n6)nc5)CC4)C3)C2)cn1C (stereo not drawn) [CPD-308, 2-((6-(2-(4-(6-((6-acetyl-8-cyclopentyl-5-methyl-7-oxo-7,8-dihydropyrido[2,3-d]pyrimidin-2-yl)amino)pyridin-3-yl)piperazin-1-yl)acetamido)spiro[3.3]heptan-2-yl)amino)-N-(2-ethyl-1-methyl-1H-imidazol-4-yl)-6-(methylamino)nicotinamide] | < 7.00

— US20260297081A1, “COMPOUNDS AND METHODS OF TREATING CANCERS” (Cullgen Inc., priority 2023, published 2026)
